In patent US7388124B2 (priority 2001, dated 2008):
“And” between values parts separate entries of the source, which are not always exact repeats. Identical values can stand only once. Like-named read-outs stand apart in the source and are kept apart here.

How the values were obtained:
[1] = test system: Mice with Neural Compression; test: von Frey fiber and camel hair brush testing for mechanical allodynia in mice with collagen placed by the posterior tibial nerve; type: in vivo; settings: for Average # Paw Withdrawals: of 10 stimulations, n=10 mice
Procedure: Biocompatible collagen was prepared for use in the present study. The collagen source was dry gelatin that was prepared using sterile techniques. The dry collagen was measured to 2.5 grams and mixed with 7.5 cc of sterile normal saline. The mixture was heated for 30 seconds in a microwave on 80% power, The mixture was kept soft in warm water (approximately 100 to 110 degrees).
The consistency of the resulting warm collagen was such that it was able to pass through a 23 gauge needle. Humidity and other factors such as temperature can affect the consistency of the substance. 1-cc syringes were used for injection of 0.2 to 0.25 cc of collagen. For the injection, 23 gauge 1″ standard luer lock hypodermic needles were used. The needles were very slightly dulled with a metal file at the tip and edges using sterile technique. The needles were angled at the midpoint with a bevel tip up. The angle was between 30 and 45 degrees, but any angle that allows for easy placement of the injected substance could be used. The needles were then attached to the collagen-filled one cc syringes. The syringes were kept in a warm water bath (100 to 110° F.) to maintain proper gel consistency.
The mice were lightly anesthetized with 1.5 to 2% isoflurane. The mice were then stabilized and aligned such that the left posterior leg was in view. The external anatomic landmarks of the posterior popliteal area were identified. The internal anatomy of this area including the posterior tibial nerve with its artery was mentally visualized with kinesthetic techniques. Kinesthetic techniques are methods that use the kinesthetic sense or the integration of the senses by which movement, mass, turgor, shape, resistance, elasticity, temperature, spatial relationships and position are commonly perceived. It also refers to the integrated use of multiple senses such as touch, proprioception, vision, and hearing. After location of the site for placement of the gel, the needle and syringe were then removed from the warm water bath. The distal portion of the needle was held loosely parallel to the tibia. The needle was allowed to gently penetrate through the dermis by pulling the skin taut over the popliteal fossa. With careful avoidance of tissue resistance, the needle tip, bevel up, was gently slipped beneath the fascial edge of the soleus muscle by the tibial nerve and artery into the deep posterior fascial compartment of the posterior tibial neurovascular tunnel, which is the neurovascular tunnel for the posterior tibial nerve and its proximal branches. When the tip of the needle was at the mid soleus muscle belly, the collagen mixture was slowly injected into the posterior tibial tunnel. The needle was removed and the animals allowed to recover from the anesthetic. All animals were normally moving freely within 20 minutes of anesthesia withdrawal.
Two days after placement of the collagen gel around the nerve, von Frey testing was again performed. Von Frey testing continued for 49 days. […]

rat pain model variants [2] = test: Analgesic effect in rat neurogenic pain model variants (overall statement); type: in vivo, Sprague Dawley rats; settings: within 40-80 minutes
Procedure: (§1) The methods of preparation and testing were similar for all the variant pain models described in this example. Male Sprague Dawley rats initially weighing between 150 and 175 grams were housed singly. Baseline behaviors to stimulations of the paw on which the procedure was to be performed were recorded over several sessions after accommodation of 3-4 days, and the results were averaged and used as the baseline control data. The pain behaviors studied were static mechanical allodynia (e.g., light touch stimulation with von Frey fibers 4.56, 4.73, 4.93, and/or 5.07), dynamic mechanical allodynia (e.g., stimulation with moving camel hair brush), and/or mechanical hyperalgesia (e.g., pinprick stimulation).
(§2) After the baseline control data was collected, the specified procedure with a gel was performed near the chosen nerve of each variant group (see Tables 2-6 and 8-10), then the rats were tested post procedurally and intermittently for up to 77 days for behavioral changes (see Tables 2-6 and 8-11) and for their responses to substances with analgesic properties (see Tables 7 and 12).
(§3) The stimuli used to elicit pain behavior were the von Frey fibers, camel hair brush and pinprick, with 6 stimulations of each stimulus. Each variant pain model had the same sequence of stimuli with the positive responses averaged and a student T-test performed for the significance of the post procedural responses as compared to the baseline control data (see Tables 2-6 and 11); and for the post-analgesic responses as compared to the pre-analgesic behavioral data (see Tables 7 and 12).
(§4) The tunnels identified by the above studies were then used for the placement of the biocompatible gels by the chosen peripheral nerves. The gelatinous or viscous substances (i.e., the gels) placed by the peripheral nerves or nerve roots contained collagen (e.g., AVITENE® and gelatin) or hydrogels. The “collagen gel” used in the present study was composed of 0.8 grams of collagen as AVITENE® (microfibrillar collagen hemostat flour, Davol Inc., Cranston, R.I. 02920) and 0.7 grams of collagen as gelatin (Knox gelatin, Kraft Foods, Northfield, Ill. 60093) mixed with 14 cc of normal saline until homogenous. Then the collagen mixture was placed in a PYREX® bowl resting in a paper bowl and covered with a ceramic saucer, then heated for 20 seconds at full power in a microwave. The resulting viscous mixture was kept fluid in a warm water bath at 100-110° F., until used for the placement procedure. The wound hydrogels used in the present study were two types: one contains alginate (SAF-Gel® from ConvaTec of E. R. Squibb & Sons, Princeton, N.J.) and the other contains acemannan from Aloe vera L. (Carrasyn®V from Carrington Laboratories, Irving, Tex.). […] Such hydrogels are used in the care of open dermal wounds as well as in first and second degree burns since they provide a closed moist environment for wound healing.
(§5) The rats were anesthesized with 1.5% to 2% isoflurane for the percutaneous kinesthetic placement of the above “gels” by the specified nerves. Using an angled 23 gauge thin wall 1″ needle, approximately 0.1 cc-0.2 cc of gel was placed percutaneously with kinesthetic technique in the anatomically defined fascial tunnels of the chosen peripheral nerves as described below.
(§6) The doses were given intraperitoneally (I.P.) and behavioral stimulus testing began 40-80 minutes after the dose. The student's t-test (p<0.05) was performed for determining the significance of changes in behaviors associated with pain after the analgesic was administered.

rat pain model variants [3] = type: in vivo, Sprague Dawley rats; settings: n=12 rats
Procedure: Male Sprague Dawley rats initially weighing between 150 and 175 grams were housed singly. […] The pain behaviors studied were static mechanical allodynia (e.g., light touch stimulation with von Frey fibers 4.56, 4.73, 4.93, and/or 5.07), dynamic mechanical allodynia (e.g., stimulation with moving camel hair brush), and/or mechanical hyperalgesia (e.g., pinprick stimulation).
as §2
The stimuli used to elicit pain behavior were the von Frey fibers, camel hair brush and pinprick, with 6 stimulations of each stimulus.
as §4, §5, §6

rat pain model variants [4] = test: Dynamic mechanical allodynia (camel hair brush) in rat pain model variants; type: in vivo, Sprague Dawley rats; settings: n=12 rats
Procedure: as §1, §2, §3
The tunnels identified by the above studies were then used for the placement of the biocompatible gels by the chosen peripheral nerves. The gelatinous or viscous substances (i.e., the gels) placed by the peripheral nerves or nerve roots contained collagen (e.g., AVITENE® and gelatin) or hydrogels. […]

rat pain model variants [5] = test: Mechanical hyperalgesia (pinprick) in rat pain model variants; type: in vivo, Sprague Dawley rats; settings: for Post Avg, Average Positive stimulations out of 6 total, Stim PP Pin Prick: n=12 rats; for Pinprick # ST[…]-ANALGESIC: of 6
Procedure: as §1, §2, §3, §4, §5, §6

[6] = test system: open surgical rat model for CRPS I; settings: prior art surgical model, Reyna et al. 1999; cited from earlier work

Structure (SMILES): NCC1(CC(=O)O)CCCCC1 [gabapentin]
- Average # Paw Withdrawals ([1]; gabapentin 25 mg/kg IP, post procedure day 58 (9.14 before dose)): 6.86
- Average # Paw Withdrawals ([1]; gabapentin 40 mg/kg IP, post procedure day 65 (9.19 before dose)): 5.81
- Analgesic response (mechanical allodynia) ([1]; gabapentin 25 or 40 mg/kg IP): Analgesic responses were shown
- analgesic effect (significance) (rat pain model variants [2]; gabapentin 50 mg/kg IP, Table 12): significant analgesic effects
- analgesic effect (significance) (rat pain model variants [2]; gabapentin 50 mg/kg IP, Table 12, listed as Gabapentin): significant analgesic effect
- Post Avg, Average Positive stimulations out of 6 total, Stim A vF 4.56 (rat pain model variants [3]; Gabapentin 50 mg/kg (IP), Pre Avg 2.0, p=8.5E-5): 0.25
- Post Avg, Average Positive stimulations out of 6 total, Stim C vF 5.07 (rat pain model variants [3]; Gabapentin 50 mg/kg (IP), Pre Avg 2.42, p=4.4E-4): 0.75
- Post Avg, Average Positive stimulations out of 6 total, Stim B vF 4.93 (rat pain model variants [3]; Gabapentin 50 mg/kg (IP), Pre Avg 2.58, p=5.8E-5): 0.5
- Post Avg, Average Positive stimulations out of 6 total, Stim S Brush (rat pain model variants [4]; Gabapentin 50 mg/kg (IP), Pre Avg 3.25, p=9.5E-4): 1.25
- Post Avg, Average Positive stimulations out of 6 total, Stim PP Pin Prick (rat pain model variants [5]; Gabapentin 50 mg/kg (IP), Pre Avg 5.08, p=2.6E-5): 2.25
- analgesic response [6]: exhibited an analgesic response

Structure (SMILES): CN1CC[C@]23c4c5ccc(O)c4O[C@H]2[C@@H](O)C=C[C@H]3[C@H]1C5.O=S(=O)(O)O [morphine, morphine sulfate]
- Average # Paw Withdrawals ([1]; morphine 1 mg/kg IP, post procedure day 49 (8.71 before dose)): 8.71
- Average # Paw Withdrawals ([1]; morphine 5 mg/kg IP, post procedure day 51 (8.88 before dose)): 6.66
- Analgesic response (mechanical allodynia) ([1]; morphine at least 5 mg/kg IP): Analgesic responses were shown
- analgesic effect (significance) (rat pain model variants [2]; morphine 5 mg/kg IP, Tables 7 and 12, listed as Morphine, sulfate): significant analgesic effect
- analgesic effect (significance) (rat pain model variants [2]; morphine 5 mg/kg IP, Tables 7 and 12, listed as morphine Sulfate, sulfate): significant analgesic effects
- Post Avg, Average Positive stimulations out of 6 total, Stim A vF 4.56 (rat pain model variants [3]; Morphine Sulfate 5 mg/kg (IP), Pre Avg 2.83, p=1.6E-4): 0.33
- Post Avg, Average Positive stimulations out of 6 total, Stim B vF 4.93 (rat pain model variants [3]; Morphine Sulfate 5 mg/kg (IP), Pre Avg 3.33, p=1.3E-6): 0.58
- Post Avg, Average Positive stimulations out of 6 total, Stim C vF 5.07 (rat pain model variants [3]; Morphine Sulfate 5 mg/kg (IP), Pre Avg 3.33, p=6.1E-6): 0.83
- Post Avg, Average Positive stimulations out of 6 total, Stim S Brush (rat pain model variants [4]; Morphine Sulfate 5 mg/kg (IP), Pre Avg 4.75, p=1.5E-6): 1.69
- Pinprick # ST[…]-ANALGESIC (rat pain model variants [5]; Morphine 5 mg/kg IP, 1 rat peroneal n. with Avitene collagen, pre 6): 1
- Pinprick # ST[…]-ANALGESIC (rat pain model variants [5]; Morphine 5 mg/kg IP, 1 rat tibial n. with Acemannan hydrogel, pre 6): 2
- Pinprick # ST[…]-ANALGESIC (rat pain model variants [5]; Morphine 5 mg/kg IP, 1 rat tibial n. with Alginate hydrogel, pre 6): 3
- Pinprick # ST[…]-ANALGESIC (rat pain model variants [5]; Morphine 5 mg/kg IP, single rats sciatic n. with Alginate hydrogel (two rats, pre 6 and 6), sulfate): 2 and 4
- Pinprick # ST[…]-ANALGESIC, Total (rat pain model variants [5]; Morphine 5 mg/kg IP, total of 5 rats, pre total 30, pre vs post p=2.1E-3): 12
- Post Avg, Average Positive stimulations out of 6 total, Stim PP Pin Prick (rat pain model variants [5]; Morphine Sulfate 5 mg/kg (IP), Pre Avg 5.67, p=2.0E-10): 2.17
- analgesic response [6]: exhibited an analgesic response
